Measurements reported in patent US6605115B1, “Method and composition for inhibiting cardiovascular cell proliferation” (Board of Trustees of the Leland Stanford Junior University, priority 1999, dated 2003).

Assays:
[1] = system: vein graft segments; assay: Ex vivo NOx production from vein graft harvested 3 days after surgery; assay type: in vivo, New Zealand white rabbits; details: A23187, 10.0 μM
Protocol: Vein grafts were harvested 3 days after surgery, as described in Example 7. Vein graft segments were incubated in 1 me of Hanks' buffered saline solution (HBSS, Irvine Scientific) containing Ca^2+ (1.0 mM) and L-arginine (100 μM, Sigma) at 37° C. for 2 hours. NOx (nitrate and nitrite) production was measured either in the absence (basal) or presence (stimulated) of calcium ionophore (A23187, 10.0 μM, Sigma). Samples of the medium (80 μL) were collected, and NOx measurement was performed using the Griess reaction facilitated by a commercial calorimetric assay (Cayman Chemical).

[2] = system: cytokine-stimulated VSMC; assay: Effect of arginine oligomers on NO production in cytokine-stimulated VSMC (NO2, Griess); assay type: cell-based, rat
Protocol: Rat VSMCs were prepared from the media layer of thoracic aorta of Sprague-Dawley rats by the explant method. The cells were cultured in Dulbecco's modified Eagle's medium (DMEM, Gibco BRL, Gaithersburg, Md.) containing 10% fetal calf serum, 100 U/ml penicillin and 100 μg/ml streptomycin at 37° C. under a humidified atmosphere containing 5% CO2. After subconfluent growth, cells were cultured with MEM Select Amine Kit (Gibco BRL, Gaithersburg, Md.) to be treated by specific concentrations of extracellular free L-arginine. Experiments were performed using cultured cells at passage levels of 5-10.
Extracellular NO production was measured as its stable oxidative metabolite, nitrite (NO2). At the end of each incubation, samples of the medium (80 μl) were collected, and NO2 measurement was performed using the Griess reaction facilitated by a commercial calorimetric assay (Cayman Chemical, Ann Arbor, Mich.). Values of NO2 production were corrected with relative cell count assessed by a cell proliferation kit II (XTT) (Boeheringer Mannheim, Germany).
Subconfluent cells were pre-incubated with medium containing 100 μM arginine for 24 hours. The cells were then transiently pretreated with each arginine polymer for 30 minutes. After translocation, the cells were incubated with a mixture of IFN-γ (100 U/ml) and LPS (100 μg/ml) in medium containing 100 μM L-arginine for another 24 hours. In some experiments, L-NMMA (1 mM), a nitric oxide synthase inhibitor, was added to the medium.

[3] = system: rat vascular smooth muscle cells (VSMC); assay: Translocation of biotin-labeled peptides into cultured VSMC (HRP-streptavidin/DAB staining); assay type: cell-based; details: for internalized biotin signal (staining): 30 minutes
Protocol: In the studies described below, transmembrane transport and cellular uptake of oligomers was assessed by incubating cells or tissue with biotin-oligomer conjugates, followed by treatment with horseradish peroxidase (HRP)-conjugated streptavidin and subsequent incubation with DAB (3,3′-diaminobenzidine), a substrate of the enzyme which produces a highly colored product.
Cultured VSMC (vascular smooth muscle cells) were treated, as described in Example 2, with biotinylated oligomers of arginine or lysine. After incubation, the cells were treated with HRP-streptavidin conjugate, then with DAB. Staining by the oxidation product was observed using light microscopy.
Rat VSMCs were grown on glass microscope slide chambers (Nunc Inc., Naperville, Ill.). Subconfluent cells were washed and placed in serum-free medium. After 2 hours, cells were treated with bR7, or bK7 (0.1 μM, 1.0 μM, 10 μM), at 37° C. for 30 minutes. To assess the role of endocytosis in cellular uptake of the peptides, experiments were performed at 4° C., and also in the presence of sodium azide (1.0%) for 30 minutes prior to exposure to the peptides. To assess the involvement of the basic amino acid transport system y+ in the translocation of peptides into the cell, experiments were performed in the presence of excess extracellular L-arginine (10 mM).
After 30 minutes of incubation with the peptides, cells were washed 3 times with phosphate-buffered saline (PBS), fixed for 5 minutes at −20° C. in ethanol/acetone, washed 3 times in PBS, incubated for 30 minutes with a peroxidase suppressor (ImmunoPure, Pierce, Rockford, Ill.) to block endogenous peroxidase activity and nonspecific binding, washed, and then incubated with 5 μg/ml of horseradish peroxidase (HRP) conjugated strepavidin (Pierce, Rockford, Ill.) for 30 minutes. Cells were washed 3 times with PBS, and a substrate of HRP, DAB (Sigma, St. Louis, […].), was added to the cells. The reaction was terminated by washing in distilled water after a 60-second incubation with DAB. Cell preparations were observed by conventional light microscopy (see FIG. 1). This experimental protocol was repeated 3 times.

[4] = system: human umbilical vein endothelial cells (ECV304); assay: In vitro translocation of biotin-labeled peptides into endothelial cells; assay type: cell-based; details: endothelial cells
Protocol: Spontaneously transformed human umbilical vein endothelial cells (ECV304, ATCC) were cultured in medium M199 (Irvine Scientific) containing 10% fetal bovine serum (FBS), 100 IU/ml penicillin and 100 μg/ml of streptomycin (Gibco BRL). Confluent cells were washed and placed in serum-free medium. After 2 hours, the cells were incubated in presence of biotin labeled peptides, as bL-R7, or bD-R7, or bL-K7 (0.1, 1.0, and 10.0 μM). After 30 minutes of incubation, cells were washed 3 times with phosphate-buffered saline (PBS), fixed in ethanol/acetone; washed in PBS; incubated for 30 minutes with peroxidase suppressor (ImmunoPure, Pierce) to block endogenous peroxidase activity; and then incubated with 5 μg/ml of horse-radish peroxidase (HRP) conjugated strepavidin (Pierce) for 30 minutes. Substrate of HRP, diaminobenzidine (DAB, Sigma), was added to the cells. The reaction was terminated by washing in distilled water after a 60-second incubation. This experiment was repeated 3 times.

[5] = system: rabbit carotid artery segment; assay: Ex vivo translocation study, carotid artery segments; set-up: species or system New Zealand white rabbits
Protocol: After incubation with biotin labeled oligomer, vascular segments were washed, then frozen in OCT compound (Miles Scientific). Frozen sections, 5 μm thick, were fixed with acetone for 10 minutes. Internalized biotin was detected using the staining procedure described in Example 2. Methyl green was used for nuclear counter staining.
To quantify the efficiency of nuclear translocation, the numbers of both DAB positive nuclei and total nuclei were counted in the intima and media separately at ×400 magnification with a video image analysis system (Automatrix). The frequency of nuclear translocation was expressed as the percent staining of nuclei, defined as the ratio of the number of DAB positive nuclei to that of all nuclei, in the intima and media. Each protocol was repeated 4 times.
Both carotid artery and jugular vein segments of male New Zealand white rabbits were used. To test the dose dependence of R7 translocation, vascular segments were incubated for 30 minutes with either bL-R7 or bD-R7 solution (0.1, 1.0, and 10.0 μM) in serum-free Dulbecco's minimal essential medium (DMEM) (Gibco BRL). To test the incubation time dependence, vascular segments were incubated with 10.0 μM of biotin labeled R7 solution for 10 seconds, 60 seconds, 5 minutes, 10 minutes, and 30 minutes. Furthermore, to determine the ability of R7 to penetrate through the vessel wall, vascular segments were ligated one end, R7 containing medium was instilled, and the other end ligated so as to expose only the luminal surface to R7. The luminal surface of the vascular segment was exposed to bL-R7 or bD-R7 (10.0 μM) for 30 minutes. To test the temperature dependence of translocation, vascular segments were incubated with 10.0 μM of biotin labeled R7 solutions at 37° C. or 4° C. To determine the disappearance time course of translocated R7, vascular segments were incubated with biotin labeled R7 solutions (10.0 μM) at 37° C. for 30 minutes, and then reincubated in DMEM with 10% FBS up to 5 days. Vascular segments were harvested at 1, 2 and 5 days after initial incubation.

[6] = system: coronary vessels of transplanted PVG rat donor hearts; assay: Heart transplant study (graft coronary artery disease, GCAD); assay type: in vivo; details: for % affected vessels / % luminal narrowing / I/M ratio: intracoronary 50 uM, 30 minutes
Protocol: In this study, PVG rat donor hearts (n=48) were transplanted heterotopically into the abdomen of ACI recipients. Donor hearts received either intracoronary PBS or intracoronary 50 uM (L)-arginine polymer (L-R5 or L-R9) for 30 minutes. (D-arginine polymers were not included in this study.) Each of these groups was further divided into 60 and 90 day study animals (n=6 each). Percent luminal narrowing, intima to media ratio (I/M), and percent affected vessels were determined as described in Example 11, below. Transfection efficiency was determined by infusing biotinylated R5 and R9, as in the preceding studies, and calculating the percentage of biotin positive nuclei divided by total number of nuclei.
PVG rat donor hearts (n=48) were transplanted heterotopically into the abdomen of ACI recipients. Donor hearts received either intracoronary PBS or intracoronary 50 uM (L)-arginine polymer (L-R5 or L-R9) for 30 minutes. Each group was further divided into 60 and 90 day study animals (n=6 each). Tissue cross sections (5μ) were stained with EVG (Elastica-van Gieson) preparation, and vessels were scored using computerized morphometry for analysis of % luminal narrowing, intima to media ratio (I/M), and % affected vessels. Transfection efficiency was determined by infusing biotinylated R5 and R9, as in preceding examples, and calculating the percentage of biotin positive nuclei divided by total number of nuclei. Results are described in Section IV C, above.

Compound: CNc1ccc2oc(C[C@H]3O[C@@]4(CC[C@H]3C)O[C@H]([C@H](C)C(=O)c3ccc[nH]3)[C@H](C)C[C@H]4C)nc2c1C(=O)O [Calcium ionophore, reference compound]
- NOx production by the vein grafts on calcium ionophore stimulation [1]: did not significantly affect the NOx production

Compound: CNC(=N)NCCC[C@H](N)C(=O)O [L-NMMA, N^G-monomethyl L-arginine, reference compound]
- enhancement of NO production in R7 treated cells after NO synthase inhibitor ([2]; L-NMMA (1 mM) added to R7 treated cells): abolished

Compound: biotin-labeled heptaarginine [bR7]
- internalized biotin signal (staining) ([3]; 0.1 μM): internalized biotin was observed in all VSMCs
- internalized biotin signal (staining) ([3]; 10 μM, 37° C.): very intense staining, not only in the cytoplasm, but also in the nucleus of all VSMC
- efficacy of translocation at 4° C. ([3]; 4° C.): no apparent reduction was observed in the efficacy of bR7 translocation
- cytoplasmic and nuclear staining after sodium azide ([3]; cells exposed to 1% sodium azide for 30 minutes prior to incubation): neither cytoplasmic nor nuclear staining was observed
- translocation in presence of free L-arginine ([3]; free L-arginine up to 10 mM added): Nor was translocation of bR7 inhibited
- internalized biotin ([4]; 0.1 μM): internalized biotin was observed in the cytoplasm of all EC
- internalized biotin ([4]; 10.0 μM for 30 minutes): internalized biotin was detected not only in the cytoplasm but also in the nucleus of virtually all exposed endothelial cells
- speed or efficacy of translocation into vascular tissue at 4° C. ([5]; 10.0 μM, 4° C.): no apparent reduction in the speed or efficacy
- biotin signals after intraluminal instillation ([5]; 10.0 μM, 30 minutes of intraluminal exposure): biotin signals were detected throughout the vessel, including the adventitial cells
- biotin signal in vascular cells ([5]; carotid artery, 10.0 μM, 30 minutes): a distinct biotin signal was observed in virtually all intimal cells, medial cells, and adventitial cells
- biotin staining by day 5 ([5]; day 5 after exposure (10.0 μM), serum containing medium): No significant positive staining

Compound: hepta-L-lysine [K7, reference compound]
- NO production ([2]; 100 μM, 30 minutes): did not increase the NO production

Compound: nona-L-arginine [R9]
- NO production ([2]; pretreatment 30 minutes, then IFN-γ and LPS, 100 μM extracellular L-arginine): dose-dependent increases in NO production at doses as low as 10 μM
- degree of enhancement of NO production ([2]; pretreatment 30 minutes, vs. vehicle treated cytokine-stimulated cells): 44±5.2%
- GCAD compared to PBS controls ([6]; 60 and 90 days): significant reduction in GCAD
- % affected vessels ([6]; 60 days): 6.5 ± 6.9%
- % luminal narrowing ([6]; 60 days): 3.2 ± 3.8%
- I/M ratio ([6]; 60 days): .03 ± .04
- % affected vessels ([6]; 90 days): 4.9 ± 7.1%
- % luminal narrowing ([6]; 90 days): 1.6 ± 3.3%
- I/M ratio ([6]; 90 days): .01 ± .02
- transfection of coronary vessels ([6]; biotinylated oligomer infused): marked transfection of the intima and media of coronary vessels
